Like-named read-outs stand apart in the source and are kept apart here.
What was measured:
in vivo = conditions: mouse
Solubility = type: physicochemical

SMILES: CCCCC1C(=O)OC(CCCNC(=N)N)C(C)C(O)C(C)C=C(C)CCCCC(O)CC(O)CC(O)CC(O)CC(O)C(OC2OC(CO)C(O)C2O)C=C(C)C(O)CCCC(O)CCCC(O)CCC(C)C1O (stereo not shown) [Pseudo-primycin-A1-acetate]
- LD50 (in vivo; iv, female mice, read-out: LD50 values i.v. female): 18.8 mg/kg
- LD50 (in vivo; iv, male mice, read-out: LD50 values i.v. male): 17.7 mg/kg
- LD50 (in vivo; po, female mice, read-out: LD50 values p.o. female): 1580 mg/kg
- LD50 (in vivo; po, male mice, read-out: LD50 values p.o. male): 1720 mg/kg
- solubility in ethanol (Solubility; ethanol): 5 g/10 ml
- solubility in methanol (Solubility; methanol): 10 g/10 ml
- solubility in water (Solubility; water): 5 g/10 ml
